Source: patent US6447767B1, “Non-myeloablative tolerogenic treatment” (Hadasit Medical Research Services and Development Ltd., priority 1997, dated 2002)
Several values for one entry are separate records, joined by “and”; a condition that tells them apart may be missing. Identical values can stand only once. Like-named read-outs stand apart in the source and are kept apart here.

Assays:
[1] = test system: Lewis rat skin xenografts
Experimental: The basic protocol for conditioning prior to transplantation included sTLI (1-6 daily exposures of 200 cGy) to a total dose of up to 1,200 cGy, followed by intravenous inoculation with 3×10^7 BMC on the day after the last TLI dose. […] One day after BMC infusion, experimental mice were injected with 200 mg/kg Cy (Taro, Israel) intraperitoneally. Cy was freshly dissolved in sterile phosphate-buffered saline prior to injection. […] A second infusion of donor, after Cy, was also administered in some of the mice.
Skin grafting was carried out 20 days after completion of the tolerogenic treatment. A full-thickness skin graft measuring 1 cm×1 cm was adjusted to the graft bed by 4 Thomas surgery clips (Thomas Scientific, USA). The panniculus camosus was kept intact in the graft bed. The graft was considered to be accepted when hair of donor color grew on the soft flexible underlying skin, and rejected when donor epithelium was lost.
Two groups of mice were administered sTLI of 6 fractions of 200 cGy/day. After sTLI conditioning, both groups were administered 30×10^6 non-T cell depleted Lewis rat BMC intravenously. The first group was given a single dose of 200 mg/kg Cy the next day. Another 3×10^7 non T cell depleted rat BMC were administered the following day. In the second group, a dose of 60 mg/kg Cy was given daily for 3 days in contrast to the single 200 mg/kg dose given the first group. The first dose of Cy was given 10 hours after the first rat BMC inoculation, the second dose at 24 hours and the third dose at 48 hours (see below). After administration of three doses of 60 mg/kg Cy, a second inoculation of 3×10^7 non T cell depleted rat BMC were administered.

[2] = test system: metastatic solid tumors / lymphoma; assay: AlloCT with rIL-2 activated mismatched lymphocytes plus tumor-specific antibodies (case reports); format: in vivo, human; conditions: single patients; antibody given with rIL-2 activated haploidentically mismatched lymphocytes
Excerpt: Donor-derived anti-cancer effector lymphocytes consisted of rIL-2 activated cells (four days activation with rIL-26,000 IU/ml) or using donor lymphocytes activated in vitro against irradiated tumor cells or host alloantigens in one way mixed lymphocyte tumor reaction or using donor lymphocytes pre-cultured with irradiated parental or other family member expressing either one of the patient's haplotypes in one way mixed lymphocyte cultures (in order to induce effector cells against inherited paternal or maternal haplotypes, to maximize anti-host alloreactivity to be used as adoptive allogeneic cell therapy (alloCT). In order to maximize anti-cancer effects, patients can be immunosuppressed with Fludarabine 25 mg/m^2×5 days. […] Following cell infusion, patients receive subcutaneously rIL-2 6×10^6 IU/m^2 in an attempt to continue to activate in vivo donor anti-tumor reactive lymphocytes. Two weeks post cell therapy, patient may receive injections of alpha interferon 3×10^6 IU every other day subcutaneously as anti-proliferative and mostly as anti-angiogenic effects to minimize or jeopardize tumor cell growth from residual tumor cells escaping alloCT.
The alloCT course was done according to the scheme described.
Both cycles of alloCT were followed with SC injections of r-IL2 6×10^6 IU for five days.

[3] = test system: BALB/c mouse spleen cells; assay: Mitogen-induced T cell proliferation ([3H]-thymidine incorporation); format: cell-based
Experimental: Mitogen-induced T cell proliferative responses were measured by culturing spleen cells in the presence of the T cell mitogens concanavalin A (ConA, 10 μg/ml) or phytohemagglutinin (PHA, 1 μg/ml) for three days. [^3H]-thymidine was added to the cultures for the last 6 hours of culture and T cell proliferation was measured in terms of counts per minute (cpm) of [^3H]-thymidine incorporated into the DNA of the cells using cell harvesting and radioactivity techniques known to those in the art.
BALB/c spleen cells were cultured for 30 minutes at 37° C. in tissue culture medium containing 100 μg/ml of ASTA-Z and then tested for in vitro T cell responses.

Daudi target cells = assay: 51Cr-release lysis by killer cells generated from human PBMC with rIL-2; format: cell-based
Experimental: (§1) Percent lysis was calculated by the following formula: [formula]

K562 target cells = assay: as above; format: cell-based
Experimental: as §1

[4] = test system: murine P815 tumor target cells; conditions: BALB/c SP or BM cells, ASTA-Z then rIL-2 6,000 IU/ml 4 days (FIG. 19)
Experimental: (§2) Human peripheral blood mononuclear cell (PBMC) and murine spleen or bone marrow populations were tested for their ability to lyse NK-sensitive target cells (human K562 and murine YAC-1 cells) and NK-resistant, activated NK-sensitive target cells (human Daudi and murine P815 cells) using standard ^51Cr-release assays. Briefly, ^51 Cr-labeled target cells were incubated at 37° C. with PBMC effector cells at various target cell to effector cell ratios for 4 hours. At the end of the incubation, the cells were pelleted by centrifugation and equal aliquots of supernatant were removed from each assay culture well and counted for radioactivity. Percent lysis was calculated by the following formula: [formula]
(§3) They were then harvested and tested for cytolytic activity in standard ^51Cr-release assays. While YAC-1 cells are sensitive to lysis by both NK and activated NK cells, P815 cells are not sensitive to lysis by NK cells but are sensitive to activated NK cells. […] While K562 cells are sensitive to lysis by both NK and activated NK cells, Daudi cells are not sensitive to NK cells but are sensitive to activated NK cells.

[5] = test system: murine YAC-1 tumor target cells; conditions: BALB/c SP or BM cells, ASTA-Z then rIL-2 6,000 IU/ml 4 days (FIG. 18)
Experimental: as §2, §3

[6] = GVHD induction by B6 bone marrow in lethally irradiated SJL/J mice; format: in vivo; conditions: B6 BM 30 min with 100 μg/ml, 25×10^6 per mouse, SJL/J 1,100 cGy TBI (FIG. 20)
Experimental: (§4) Recipients were monitored for survival and clinical signs of GVHD such as ruffled fur, diarrhea, and measurable weight loss. […], samples of liver and lung sections were obtained form each mouse to test for histological evidence of GVHD. Histological preparations were analyzed by an independent pathologist on a double blind basis.
(§5) In parallel murine experiments, culture of B6 bone marrow for 30 minutes with ASTA-Z (100 μg/ml) prior to injection (25×10^6 per mouse) into lethally irradiated (1,100 cGy of TBI) SJL/J mice reduced the capacity of the bone marrow cells to induce GVHD (FIG. 20). Similarly, culture of B6 spleen cells for 30 minutes with ASTA-Z (100 μg/ml) prior to injection (25×10^6 per mouse) into sublethally irradiated BALB/c mice (600 cGy) reduced the capacity of the spleen cells to induce GVHD (FIG. 21).

[7] = GVHD induction by B6 spleen cells in sublethally irradiated BALB/c mice; format: in vivo; conditions: B6 spleen cells 30 min with 100 μg/ml, 25×10^6 per mouse, BALB/c 600 cGy (FIG. 21)
Experimental: as §4, §5

[8] = sTLI, rat BMC, single 200 mg/kg Cy, second rat BMC
[9] = ASTA-Z treated PBMC cultured with IL-2 6,000 IU/ml, target:effector 1:100
[10] = human PBMC, ASTA-Z then rIL-2 6,000 IU/ml 4 days

## O=P1(N(CCCl)CCCl)NCCCO1 (centres unmarked) [Cy, cyclophosphamide]
[1]; Cy 3 × 60 mg/kg, of the 15 recipients that accepted xenografts
  recipients that developed lethal GVHD: 5
[1]; sTLI, rat BMC, Cy 60 mg/kg at 10 h, 24 h, 48 h, second rat BMC
  Skin Graft Acceptance: 15 of 20 and 15/20
[1]; [8]
  Lethal GVHD: in most of the recipients
  Skin Graft Acceptance: 0/6
  Skin Xenograft Survival Time: <20 days

## MabThera: monoclonal anti-CD20 antibodies
[2]
  clinical outcome: no evidence of disease

## mafosphamide [ASTA-Z]
[3]; 100 μg/ml, 30 minutes, 37°C
  in vitro proliferative responses to the T cell mitogens ConA and PHA: elimination
[3]; BALB/c spleen cells, ASTA-Z 100 μg/ml 30 min 37°C and/or IL-2 1,000 IU/ml, ConA 10 μg/ml
  Cell Proliferation, Con-A: 2,980 cpm
[3]; BALB/c spleen cells, ASTA-Z 100 μg/ml 30 min 37°C and/or IL-2 1,000 IU/ml, PHA 1 μg/ml
  Cell Proliferation, PHA: 5,118 cpm
[3]; BALB/c spleen cells, ASTA-Z 100 μg/ml 30 min 37°C and/or IL-2 1,000 IU/ml, no mitogen
  Cell Proliferation, No Mitogens: 219 cpm
[3]; IL-2 1,000 IU/ml added to cultures of spleen cells and ASTA-Z
  effect of added IL-2 on inhibition of responsiveness to the mitogens: did not overcome inhibition
Daudi target cells; [9]
  Lysis of Daudi target cells (percentage of 51Cr released): 42% and 71%
Daudi target cells; [10]
  generation of killer cells capable of killing Daudi target cells: did not decrease
K562 target cells; [9]
  Lysis of K562 target cells (percentage of 51Cr released): 52% and 48%
K562 target cells; [10]
  generation of killer cells capable of killing K562 target cells: did not decrease
[4]
  generation of killer cells capable of killing P815 target cells: did not decrease
[5]
  generation of killer cells capable of killing YAC-1 target cells: did not decrease
[6]
  capacity of the bone marrow cells to induce GVHD: reduced
[7]
  capacity of the spleen cells to induce GVHD: reduced

B1: Panorex: anti-epithelial cell antibodies, anti-17A (antibody, chains of the INN, looked up, V domains shown)
VH: QVQLQQSGAELVRPGTSVKVSCKASGYAFTNYLIEWVKQRPGQGLEWIGVINPGSGGTNYNEKFKGKATLTADKSSSTAYMQLSSLTSDDSAVYFCARDGPWFAYWGQGTLVTVSA
VL: NIVMTQSPKSMSMSVGERVTLTCKASENVVTYVSWYQQKPEQSPKLLIYGASNRYTGVPDRFTGSGSATDFTLTISSVQAEDLADYHCGQGYSYPYTFGGGTKLEIK
[2]
  clinical outcome: no evidence of disease
